We go through 15 compounds from PubChem BioAssay (NCI).

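Grown in 96-well plates, cells were treated for 48 hours with each compound at five concentrations. Insufficient inhibition: endpoint recorded as highest concentration tested. At the TGI there is no net growth.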 A value given as a limit tells only on which side of the number the result lay.

Some test systems named below: MALME-3M melanoma; ACHN renal; SK-MEL-2 melanoma; HT29 colon; EKVX NSCLC; HOP-92 NSCLC; SF-539 CNS; MDA-MB-231 breast.
Holding throughout (assay): NCI-60 cell line screen, 48 h

In the case of `OC(CC(c1ccccc1)c1ccc(Cl)cc1)c1ccc(Cl)cc1` (stereo not given), the TGI is 79.1 µM with MALME-3M melanoma; 77.6 µM in the assay with ACHN renal; 49.8 µM in the assay with SK-MEL-2 melanoma; above 100 µM with HT29 colon; 74.7 µM in the assay on EKVX NSCLC; 64.2 µM in the assay with HOP-92 NSCLC. In the assay on SF-539 CNS, this compound came in with a TGI above 100 µM.
On to `CC1=NNC(N)=N/C1=C/C(Sc1ccc(Cl)cc1)c1cccs1` (stereo not given), for which the TGI in the assay on MALME-3M melanoma is 27.1 µM; with ACHN renal, 42.5 µM; with SK-MEL-2 melanoma it was 27.4 µM; with HT29 colon it was 25.4 µM; in the assay on EKVX NSCLC it was 30.3 µM; with HOP-92 NSCLC it was above 100 µM.
Turning to `COc1ccc(Cn2nc(OCc3ccccn3)c3cc([N+](=O)[O-])ccc32)cc1`, the TGI in the assay on MALME-3M melanoma, with ACHN renal, with SK-MEL-2 melanoma, with HT29 colon, in the assay with MDA-MB-231 breast and with SF-539 CNS was above 100 µM each time.
In the case of `C=C(CCOC)CCC1CCCCC(=C)C1=O` (stereo not given), the TGI in the assay with MALME-3M melanoma, in the assay with ACHN renal, with SK-MEL-2 melanoma, in the assay on HT29 colon, with MDA-MB-231 breast and in the assay on EKVX NSCLC was above 100 µM throughout.
Consider `Cn1c(N)c(/C=N/NC(=O)CC#N)c(=O)n(C)c1=O`, for which the TGI in the assay on MALME-3M melanoma, with ACHN renal, with SK-MEL-2 melanoma, with HT29 colon, with MDA-MB-231 breast and in the assay with EKVX NSCLC was above 100 µM throughout.
With `COc1ccc(N2C(=O)C3c4[nH]c5ccc(C)cc5c4C4CCC(C(C)C)CC4C3C2=O)cc1` (stereo not given), the TGI in the assay with ACHN renal, with SK-MEL-2 melanoma, in the assay with HT29 colon, in the assay with MDA-MB-231 breast, in the assay with EKVX NSCLC and in the assay with HOP-92 NSCLC was above 100 µM each time.
As to `Cc1ccc2ccccc2c1CC1S(=O)(=O)OCCOS1(=O)=O`, the TGI in the assay with MALME-3M melanoma was 25.2 µM; in the assay on ACHN renal, 28.8 µM; in the assay with SK-MEL-2 melanoma it was 37.9 µM; in the assay with HT29 colon, 27.1 µM; with MDA-MB-231 breast it was 29.1 µM; in the assay with EKVX NSCLC, 29.9 µM.
On to `O=C1c2cc(Cl)ccc2-n2c(noc2=O)C2CSCN12` (stereo not given), for which the TGI with MALME-3M melanoma, in the assay on ACHN renal, in the assay with SK-MEL-2 melanoma, with HT29 colon, in the assay on MDA-MB-231 breast and in the assay on EKVX NSCLC was above 100 µM in each case.
Turning to `CC(=O)N[C@@H](Cc1ccc(O)cn1)C(=O)NCc1ccc2c(c1)OCO2`, the TGI in the assay on MALME-3M melanoma, in the assay on ACHN renal, with SK-MEL-2 melanoma, in the assay on HT29 colon, in the assay on EKVX NSCLC and in the assay on HOP-92 NSCLC was above 100 µM throughout. Further, in the assay on SF-539 CNS, the TGI is above 100 µM.
Regarding `CC(C)=CC(=O)O[C@@H]1CC(C)(C)CC2C3=CCC4[C@]56CC[C@](O)(OC5)C(C)(C)C6CC[C@@]4(C)C3(C)CC[C@]21C(=O)O` (stereo not given in full), the TGI was above 100 µM in the assay with MALME-3M melanoma; 82.8 µM in the assay with ACHN renal; above 100 µM with SK-MEL-2 melanoma; above 100 µM in the assay with HT29 colon; above 100 µM with MDA-MB-231 breast; above 100 µM in the assay with EKVX NSCLC. The same compound yielded a TGI in the assay on SF-539 CNS above 100 µM.
Turning to `O=C1CCC2(CC1)Cc1ccccc1C2O` (stereo not given), the TGI in the assay on MALME-3M melanoma, with ACHN renal, with SK-MEL-2 melanoma, with HT29 colon, with MDA-MB-231 breast and in the assay with EKVX NSCLC was above 100 µM each time. This compound returned a TGI in the assay with SF-539 CNS above 100 µM.
For the compound `C#CC(C)(C)Oc1cc(OC)c2c(=O)c3ccccc3n(C)c2c1`, the TGI is 64.6 µM in the assay with ACHN renal; 35.7 µM in the assay with SK-MEL-2 melanoma; above 100 µM in the assay with HT29 colon; 56.1 µM in the assay on MDA-MB-231 breast; 74.5 µM with EKVX NSCLC; 76 µM with SF-539 CNS.
For the compound `CC(=O)N(C(C)=O)n1c(Cc2ccc(Cl)cc2)nn(C(C)=O)c1=O`, the TGI in the assay on MALME-3M melanoma, in the assay with ACHN renal, with SK-MEL-2 melanoma, in the assay with HT29 colon, in the assay on MDA-MB-231 breast and in the assay with EKVX NSCLC was above 100 µM throughout. In the assay on SF-539 CNS, this compound showed a TGI above 100 µM.
Turning to `CSc1c(C(C)=O)c(O)n(-c2ccc(Cl)cc2)c(=O)c1C#N`, the TGI with MALME-3M melanoma, in the assay on SK-MEL-2 melanoma, in the assay with HT29 colon, with MDA-MB-231 breast, in the assay on EKVX NSCLC and with SF-539 CNS was above 100 µM each time.
On to `CCCCCCCCCCCCC(=O)NCC(=O)NC(Cc1ccccc1)C(=O)Oc1ccc([N+](=O)[O-])cc1` (stereo not given), for which the TGI in the assay with ACHN renal, in the assay on SK-MEL-2 melanoma, in the assay on HT29 colon, in the assay on MDA-MB-231 breast, in the assay with EKVX NSCLC and with SF-539 CNS was above 100 µM throughout.
